# Assay results as given in patent publication US20160251289A1, “USE OF ALKANE SULFONIC ACID FOR PREPARING PHENOLIC ALCOHOL” (ARKEMA FRANCE, priority 2013, published 2016).
# Like-named read-outs stand apart in the source and are kept apart here.
# Experiments:
# [1] = for Solubility (mass %): phenol/acetone/water (50/50/5) weight mixture; for times more soluble than potassium sulfate: phenol/acetone/water (50/50/5)
# Procedure: 25 g of test solvent are placed in a 50 mL three-necked flask equipped with a condenser, a thermometer and a magnetic stirrer. The solvent is brought to the desired temperature and the alkanesulfonic acid salt is then added portionwise until cloudiness appears, indicating saturation of the medium.
# The solubility is calculated in the following manner:
# % salt solubility=m/(m+M)×100
# with m=mass of dissolved salt, M=mass of solvent
# 1. Solubility of the Salts in a Phenol/Acetone/Water (50/50/5) Weight Mixture:
# A first measurement is taken at 20° C. at atmospheric pressure, and a second measurement is then taken at 60° C. […] 1.1 Potassium Salts
# [2] = for Solubility (mass %): phenol/water (95/5) weight mixture; for times more soluble than potassium sulfate: phenol/water (95/5)
# Procedure: Solubility of the Salts in a Phenol/Water (95/5) Weight Mixture:
# A first measurement is taken at 55° C. at atmospheric pressure, and a second measurement is then taken at 100° C.
smiles,measurement,setting,value
"CS(=O)(=O)[O-].[K+] [CH3SO3K, potassium methanesulfonate]",Solubility (mass %),"[1]; 20° C., atmospheric pressure",0.80% mass %
same,Solubility (mass %),[1]; 60° C.,0.80% mass %
same,times more soluble than potassium sulfate,[1]; at 20° C.,more than 6.7 times
same,times more soluble than potassium sulfate,[1]; at 60° C.,more than 6.7 times
same,Solubility (mass %),"[2]; 55° C., atmospheric pressure",1.90% mass %
same,Solubility (mass %),[2]; 100° C.,2.40% mass %
same,times more soluble than potassium sulfate,[2]; printed as at 20° C.,15 times
same,times more soluble than potassium sulfate,[2]; printed as at 60° C.,8 times
